Measurements taken from the NIST ThermoML archive (doi:10.1016/j.tca.2010.06.003).
± gives the expanded uncertainty stated by the source.

Settings: for Normal melting temperature: Crystal; for Triple point temperature: Crystal 2, DTA

Compound | Normal melting temperature | Triple point temperature
O=[N+]([O-])[O-].[K+] [potassium nitrate] | 333.6 ± 2 °C | 405.6 ± 0.5 K
O=[N+]([O-])[O-].[Na+] [sodium nitrate] | 306.5 ± 2 °C | 545.5 ± 0.5 K
